Tested on: HeLa wt cells
Test: BFA washout assay (Golgi reassembly, TGN46 and B4GALT1 staining)
Assay type: cell-based
Settings: 120 min washout
Protocol: For BFA washout assays, HeLa wt cells were seeded on glass coverslips in 24-well plates. […] After 24 h, the treatment medium was removed, cells were washed once with DPBS and then treated with 5 µg/mL BFA or 0.1% DMSO as a control for 2 h. Cells were then washed with DPBS four times and incubated with fresh culture medium for 0/15/30/45/60/120 min. After the respective BFA washout time, cells were fixed in ice-cold methanol for 15 min on ice, washed three times with DPBS and blocked in 3% BSA (Roth, Karlsruhe, Germany, #8076) overnight. Samples were incubated with primary antibodies diluted in 3% BSA for 2 h and then washed three times with DPBS, incubated with the appropriate secondary antibodies diluted in 3% BSA for 30 min and washed three times with DPBS. Afterwards, cells were embedded in ProLong Glass Antifade Mountant (Thermo Fisher Scientific, Waltham, MA, USA, #P36980) containing 1 µg/mL DAPI (Roth, Karlsruhe, Germany, #6335.1). Images were recorded with an Axio Observer 7 fluorescence microscope (Carl Zeiss Microscopy, Oberkochen, Germany) using a 40x/1,4 Oil DIC M27 Plan-Apochromat objective (Carl Zeiss Microscopy, Oberkochen, Germany) and an ApoTome 2 (Carl Zeiss Microscopy, Oberkochen, Germany).

CCCCCC1=C/C(=C/c2[nH]c(-c3ccc[nH]3)cc2OC)N=C1C [Prodigiosin, prodigiosin]
Golgi reassembly during BFA washout (10 nM pre-treatment 24 h): fully reformed Golgi complex
Golgi reassembly during BFA washout (100 nM pre-treatment 24 h): severely disturbed Golgi reassembly
